Source: patent US10077261B2, “Imidazolin-5-one derivative useful as FASN inhibitors for the treatment of cancer” (Janssen Pharmaceutica NV, priority 2012, dated 2018)

Columns and labels:
[1] = test system: A2780 ovarian cells; assay: A2780 ovarian cell proliferation assay in lipid reduced medium, without palmitate (MTT); format: cell-based; settings: Homo sapiens, A2780, 96 h; read-out: pIC50 A2780 Ovarian Cell, Without Palmitate (converted)
[2] = biological target: T1, hFASN enzyme (full length) (Homo sapiens, UniProt P49327); assay: Fatty Acid Synthase (FASN) inhibition scintillation proximity assay; format: biochemical; settings: for inhibition at 10 µM: read-out: Human FASN % inhibition @ 10 μM, 10 μM test compound; for IC50: read-out: Human FASN pIC50 (converted)
T1 construct: 10 μL hFASN enzyme (full length, 300 ng, purified in house); made in house
T1 sequence (P49327 whole entry): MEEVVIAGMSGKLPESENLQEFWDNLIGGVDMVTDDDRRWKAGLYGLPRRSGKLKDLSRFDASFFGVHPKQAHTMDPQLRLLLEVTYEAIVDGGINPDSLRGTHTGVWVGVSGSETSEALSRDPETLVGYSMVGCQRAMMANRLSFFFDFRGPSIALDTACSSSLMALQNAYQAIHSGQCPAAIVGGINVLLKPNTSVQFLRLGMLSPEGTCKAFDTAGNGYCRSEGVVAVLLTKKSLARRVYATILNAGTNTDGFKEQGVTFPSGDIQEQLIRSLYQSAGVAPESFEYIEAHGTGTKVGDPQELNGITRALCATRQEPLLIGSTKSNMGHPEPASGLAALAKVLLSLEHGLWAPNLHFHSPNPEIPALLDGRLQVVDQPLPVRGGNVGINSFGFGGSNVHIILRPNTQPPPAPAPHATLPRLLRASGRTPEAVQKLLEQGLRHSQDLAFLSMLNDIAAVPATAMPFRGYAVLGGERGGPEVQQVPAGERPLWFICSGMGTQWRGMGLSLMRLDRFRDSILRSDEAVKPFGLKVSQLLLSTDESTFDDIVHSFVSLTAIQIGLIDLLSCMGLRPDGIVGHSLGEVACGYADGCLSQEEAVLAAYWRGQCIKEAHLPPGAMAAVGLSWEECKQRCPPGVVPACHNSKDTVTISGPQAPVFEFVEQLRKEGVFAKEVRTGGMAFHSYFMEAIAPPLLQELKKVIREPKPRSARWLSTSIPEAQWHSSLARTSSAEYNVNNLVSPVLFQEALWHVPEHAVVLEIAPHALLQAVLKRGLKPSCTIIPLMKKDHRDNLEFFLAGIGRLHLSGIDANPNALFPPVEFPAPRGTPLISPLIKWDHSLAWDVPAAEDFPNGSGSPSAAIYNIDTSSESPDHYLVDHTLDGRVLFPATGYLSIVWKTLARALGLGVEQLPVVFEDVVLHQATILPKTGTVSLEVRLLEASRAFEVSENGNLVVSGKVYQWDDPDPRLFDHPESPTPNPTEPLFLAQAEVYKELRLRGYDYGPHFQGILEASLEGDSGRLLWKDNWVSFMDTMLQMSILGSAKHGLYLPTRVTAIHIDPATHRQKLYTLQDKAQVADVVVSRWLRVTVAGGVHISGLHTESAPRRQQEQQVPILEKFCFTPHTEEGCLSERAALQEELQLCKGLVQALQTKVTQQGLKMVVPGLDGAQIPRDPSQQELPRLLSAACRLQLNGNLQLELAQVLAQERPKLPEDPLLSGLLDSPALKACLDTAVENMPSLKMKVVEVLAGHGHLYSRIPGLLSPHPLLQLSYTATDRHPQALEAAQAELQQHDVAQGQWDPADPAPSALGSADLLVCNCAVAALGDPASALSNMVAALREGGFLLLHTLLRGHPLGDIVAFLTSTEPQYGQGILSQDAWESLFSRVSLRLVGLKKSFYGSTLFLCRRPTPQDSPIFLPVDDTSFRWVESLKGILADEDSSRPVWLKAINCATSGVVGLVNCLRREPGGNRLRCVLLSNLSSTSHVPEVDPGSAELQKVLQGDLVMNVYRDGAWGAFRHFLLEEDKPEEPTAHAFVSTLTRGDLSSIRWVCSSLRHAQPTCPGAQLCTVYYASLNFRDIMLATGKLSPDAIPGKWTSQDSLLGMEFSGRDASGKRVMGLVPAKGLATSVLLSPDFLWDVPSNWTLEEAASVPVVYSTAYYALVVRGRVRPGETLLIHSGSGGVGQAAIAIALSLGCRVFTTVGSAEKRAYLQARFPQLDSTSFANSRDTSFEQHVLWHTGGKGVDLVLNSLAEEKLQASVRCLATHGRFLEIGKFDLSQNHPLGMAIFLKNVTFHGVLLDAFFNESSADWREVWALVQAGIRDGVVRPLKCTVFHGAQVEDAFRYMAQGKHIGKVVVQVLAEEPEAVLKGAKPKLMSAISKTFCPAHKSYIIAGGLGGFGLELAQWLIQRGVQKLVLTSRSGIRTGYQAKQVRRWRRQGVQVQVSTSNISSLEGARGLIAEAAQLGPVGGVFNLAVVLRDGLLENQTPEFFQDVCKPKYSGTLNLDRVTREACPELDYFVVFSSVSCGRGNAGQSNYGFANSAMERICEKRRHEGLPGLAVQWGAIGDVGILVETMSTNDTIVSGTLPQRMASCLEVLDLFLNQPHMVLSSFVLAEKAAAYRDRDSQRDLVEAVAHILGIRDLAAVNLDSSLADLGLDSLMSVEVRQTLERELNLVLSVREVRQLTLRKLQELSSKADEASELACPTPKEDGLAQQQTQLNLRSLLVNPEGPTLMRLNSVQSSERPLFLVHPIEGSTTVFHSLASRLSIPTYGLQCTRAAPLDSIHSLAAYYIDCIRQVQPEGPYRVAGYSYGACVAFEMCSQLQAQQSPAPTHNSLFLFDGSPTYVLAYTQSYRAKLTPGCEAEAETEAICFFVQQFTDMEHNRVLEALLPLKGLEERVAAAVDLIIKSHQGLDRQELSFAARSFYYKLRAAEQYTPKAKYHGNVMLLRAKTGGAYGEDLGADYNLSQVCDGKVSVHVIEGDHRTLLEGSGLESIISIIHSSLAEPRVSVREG
In short: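 Proximity read-out: hydrophobic ^3H-palmitate formed from ^3H-acetyl-CoA and malonyl-CoA binds streptavidin imaging beads, imaged at 610±20 nm at least 24 h after stopping. Enzyme was in-house purified full-length hFASN, 300 ng, in pH 7.5 phosphate/DTT buffer; compound series 30 μM down to 0.01 μM, normalized to controls, 4-parameter fit.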

[3] = biological target: Fatty Acid Synthase Keto-reductase Domain (FASN KR) (Homo sapiens, UniProt P49327); assay: Fatty Acid Synthase keto-reductase domain (FASN KR) inhibition, NADPH oxidation at 340 nm
Fatty Acid Synthase Keto-reductase Domain (FASN KR), sequence (P49327 whole entry, the tested form may be a part): as the sequence (P49327 whole entry) above
Description: After 20 minutes incubation at room temperature the plate was measured again (T2).
The decrease in absorbance was calculated as (Absorbance before incubation T1)−(Absorbance following incubation T2).
A plot of Controlmin versus test compound concentration was fitted to a 4-parameter logistic curve using a non-linear least squares regression method.

[4] = test system: A2780 ovarian cells; assay: A2780 ovarian cell proliferation assay in lipid reduced medium, with palmitate (MTT); format: cell-based; settings: Homo sapiens, A2780, 96 h; read-out: pIC50 A2780 Ovarian Cell, With Palmitate (converted)
In short: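 In this palmitate-supplemented format, compound dilutions (30 μM down to 0.01 μM) are added to cells in lipid-reduced serum with 25 μM palmitate, 0.2% fatty-acid-free BSA and 0.25% ethanol. After four days (96 h) MTT absorbance at 544 nm is recorded and fitted by minimum sum of squares.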

| SMILES | IC50 [1] [nM] | inhibition at 10 µM [2] [%] | IC50 [2] [nM] | IC50 [3] [nM] | IC50 [4] [nM] |
| --- | --- | --- | --- | --- | --- |
| O=C(C1CC1)N1CC[C@H](CN2C(=O)C3(CC3)N=C2c2ccc(-c3ccc4[nH]ccc4c3)cc2)C1 [compound 210, (S)-5-(4-(1H-indol-5-yl)phenyl)-6-((1-(cy7clopropanecarbonyl)pyrrolidin-3-yl)methyl)-4,6-diazaspiro[2.4]hept-4-en-7-one] | 52.5 | 103 | 89.1 | 170 | > 10000 |
| O=C(C1CC1)N1CC[C@H](CN2C(=O)C3(CC3)N=C2c2ccc(-c3ccc4sccc4c3)cc2)C1 [compound 211, (S)-5-(4-(benzo[b]thiophen-5-yl)phenyl)-6-((1-(cyclopropanecarbonyl)pyrrolidin-3-yl)methyl)-4,6-diazaspiro[2.4]hept-4-en-7-one] | ~708 | 107 | 85.1 | 200 | > 10000 |
| O=C(C1CC1)N1CC[C@@H](CN2C(=O)C3(CC3)N=C2c2ccc(-c3ccc(-c4ccncc4)cc3)cc2)C1 [compound 235, (R)-6-((1-(cyclopropanecarbonyl)pyrrolidin-3-yl)methyl)-5-(4′-(pyridin-4-yl)-[1,1′-biphenyl]-4-yl)-4,6-diazaspiro[2.4]hept-4-en-7-one] | 10 | 111 | 23.4 | 45.7 | > 10000 |
| Cc1cc(-c2ccc3occc3c2)ccc1C1=NC2(CC2)C(=O)N1C[C@@H]1CCN(C(=O)C2CC2)C1 [compound 278, (R)-5-(4-(benzofuran-5-yl)-2-methylphenyl)-6-((1-(cyclopropanecarbonyl)pyrrolidin-3-yl)methyl)-4,6-diazaspiro[2.4]hept-4-en-7-one] | ~692 | 113 | 25.7 | 69.2 | > 10000 |
| Cc1cc(-c2ccc3sccc3c2)ccc1C1=NC2(CC2)C(=O)N1C[C@@H]1CCN(C(=O)C2CC2)C1 [compound 279, (R)-5-(4-(benzo[d]thiophen-5-yl)-2-methylphenyl)-6-((1-(cyclopropanecarbonyl)pyrrolidin-3-yl)methyl)-4,6-diazaspiro[2.4]hept-4-en-7-one] | 407 | 107 | 28.2 | 44.7 | > 10000 |
| Cc1cc2cc(-c3ccc(C4=NC5(CC5)C(=O)N4C[C@@H]4CCN(C(=O)C5CC5)C4)c(C)c3)ccc2o1 [compound 280, (R)-6-((1-(cyclopropanecarbonyl)pyrrolidin-3-yl)methyl)-5-(2-methyl-4-(2-methylbenzofuran-5-yl)phenyl)-4,6-diazaspiro[2.4]hept-4-en-7-one] | ~1950 | 109 | 30.2 | 126 | > 10000 |
| Cc1cc2cc(-c3ccc(C4=NC5(CC5)C(=O)N4C[C@@H]4CCN(C(=O)C5CC5)C4)c(C)c3)ccc2s1 [compound 281, (R)-6-((1-(cyclopropanecarbonyl)pyrrolidin-3-yl)methyl)-5-(2-methyl-4-(2-methylbenzo[b]thiophen-5-yl)phenyl)-4,6-diazaspiro[2.4]hept-4-en-7-one] | ~813 | 114 | 44.7 | 110 | > 6170 |
| Cc1cc(-c2ccc3sc(C)c(C)c3c2)ccc1C1=NC2(CC2)C(=O)N1C[C@@H]1CCN(C(=O)C2CC2)C1 [compound 283, (R)-6-((1-(cyclopropanecarbonyl)pyrrolidin-3-yl)methyl)-5-(4-(2,3-dimethylbenzo[b]thiophen-5-yl)-2-methylphenyl)-4,6-diazaspiro[2.4]hept-4-en-7-one] | ~1860 | 112 | 41.7 | 93.3 | > 10000 |
| Cc1cc(-c2ccc3occc3c2)ccc1C1=NC2(CC2)C(=O)N1CC1CN(C(=O)C2CC2)C1 [compound 287, 5-(4-(benzofuran-5-yl)-2-methylphenyl)-6-((1-(cyclopropanecarbonyl)azetidin-3-yl)methyl)-4,6-diazaspiro[2.4]hept-4-en-7-one] | ~282 | 110 | 43.7 | 166 | > 10000 |
| Cc1cc2cc(-c3ccc(C4=NC5(CC5)C(=O)N4CC4CN(C(=O)C5CC5)C4)c(C)c3)ccc2o1 [compound 289, 6-((1-(cyclopropanecarbonyl)azetidin-3-yl)methyl)-5-(2-methyl-4-(2-methylbenzofuran-5-yl)phenyl)-4,6-diazspiro[2.4]hept-4-en-7-one] | 1120 | 102 | 97.7 | 324 | > 10000 |
| Cc1cc2cc(-c3ccc(C4=NC5(CC5)C(=O)N4C[C@@H]4CCN(C(=O)C5CC5)C4)cc3F)ccc2o1 [compound 387, 6-{[(3R)-1-(Cyclopropylcarbonyl)pyrrolidin-3-yl]methyl}-5-[3-fluoro-4-(2-methyl-1-benzofuran-5-yl)phenyl]-4,6-diazaspiro[2.4]hept-4-en-7-one] | ~3240 | 103 | 219 | 759 | > 10000 |
| Cc1cc2cc(-c3ccc(C4=NC5(CC5)C(=O)N4C[C@@H]4CCN(C(=O)C5CC5)C4)cc3C)ccc2o1 [compound 388, 6-{[(3R)-1-(Cyclopropylcarbonyl)pyrrolidin-3-yl]methyl}-5-[3-methyl-4-(2-methyl-1-benzofuran-5-yl)phenyl]-4,6-diazaspiro[2.4]hept-4-en-7-one] | ~2450 | 99 | 355 | 1100 | > 10000 |
| O=C(C1CC1)N1CC(CN2C(=O)C3(CC3)N=C2c2ccc(-c3ccc4sccc4c3)c(F)c2)C1 [compound 404, 5-[4-(1-Benzothiophen-5-yl)-3-fluorophenyl]-6-{[1-(cyclopropylcarbonyl)azetidin-3-yl]methyl}-4,6-diazaspiro[2.4]hept-4-en-7-one] | 1100 | 97 | 178 | 490 | > 10000 |
| O=C(C1CC1)N1CC[C@@H](CN2C(=O)C3(CC3)N=C2c2ccc(-c3nc4ccccc4[nH]3)cc2F)C1 [compound 538, 5-[4-(1H-Benzimidazol-2-yl)-2-fluorophenyl]-6-{[(3R)-1-(cyclopropylcarbonyl)pyrrolidin-3-yl]methyl}-4,6-diazaspiro[2.4]hept-4-en-7-one] | 132 | 99 | 170 | 331 | ~10000 |
| COCc1nn(C)c2ccc(-c3ccc(C4=NC5(CC5)C(=O)N4CC4CN(C(=O)C5CC5)C4)c(C)c3)cc12 [compound 588, 6-{[1-(Cyclopropylcarbonyl)azetidin-3-yl]methyl}-5-{4-[3-(methoxymethyl)-1-methyl-1H-indazol-5-yl]-2-methylphenyl}-4,6-diazaspiro[2.4]hept-4-en-7-one] | ~676 | 93 | 603 | 1170 | > 10000 |
| COCc1nn(C)c2ccc(-c3ccc(C4=NC5(CC5)C(=O)N4CC4CN(C(=O)C5CC5)C4)c(F)c3)cc12 [compound 608, 6-{[1-(Cyclopropylcarbonyl)azetidin-3-yl]methyl}-5-{2-fluoro-4-[3-(methoxymethyl)-1-methyl-01H-indazol-5-yl]phenyl}-4,6-diazaspiro[2.4]hept-4-en-7-one] | 372 | 98 | 148 | 1020 | > 10000 |
| CC(C)N1CCC2(CC1)N=C(c1ccc(-c3ccc4[nH]ncc4c3)cc1)N(C[C@@H]1CCN(C(=O)C3CC3)C1)C2=O [compound 743, 3-{[(3R)-1-(Cyclopropylcarbonyl)pyrrolidin-3-yl]methyl}-2-[4-(1H-indazol-5-yl)phenyl]-8-(1-methylethyl)-1,3,8-triazaspiro[4.5]dec-1-en-4-one] | 2090 | 90 | 708 | 1580 | > 10000 |
| CC(C)C(=O)N1CCC2(CC1)N=C(c1ccc(-c3ccc4[nH]ccc4c3)cc1)N(CC1CN(C(=O)C3CC3)C1)C2=O [compound 753, 3-{[1-(Cyclopropylcarbonyl)azetidin-3-yl]methyl}-2-[4-(1H-indol-5-yl)phenyl]-8-(2-methylpropanoyl)-1,3,8-triazaspiro[4.5]dec-1-en-4-one] | ~245 | 107 | 135 | 646 | > 10000 |
| COCCN1CCC2(CC1)N=C(c1ccc(-c3ccc4[nH]ccc4c3)cc1)N(CC1CN(C(=O)C3CC3)C1)C2=O [compound 755, 3-{[1-(Cyclopropylcarbonyl)azetidin-3-yl]methyl}-2-[4-(1H-indol-5-yl)phenyl]-8-triazaspiro[4.5]dec-1-en-4-one] | ~316 | 107 | 229 | 631 | > 6170 |
| O=C(C1CC1)N1CC(CN2C(=O)C3(CCN(CCO)CC3)N=C2c2ccc(-c3ccc4[nH]ccc4c3)cc2)C1 [compound 757, 3-{[1-(Cyclopropylcarbonyl)azetidin-3-yl]methyl}-8-(2-hydroxyethyl)-2-[4-(1H-indol-5-yl)phenyl]-1,3,8-triazaspiro[4.5]dec-1-en-4-one] | 708 | 104 | 158 | 1000 | > 10000 |
